Data taken from a melting point compilation (Tetko et al.; mined from patent text by program, amines drawn as free bases though some values may be those of a salt).

melting point [°C]	SMILES
128 to 132	COc1ccccc1N1CC[N+]([O-])(CCN(C(=O)C2CCCCC2)c2ccccc2[N+](=O)[O-])CC1
135 to 138	COc1cccc2c1C(=O)OC2c1ccccc1 (stereo not drawn)
127 to 128	COc1ccc(S(=O)(=O)Nc2ccccc2Nc2ccc(Cl)cc2)cc1
156	Cn1cc(-c2ccccc2)c(=O)c(-c2cc(Cl)ccc2Cl)c1
248	O=C(Cc1ccccc1O)N1C[C@@H]2SCCC(c3ccccc3)(c3ccccc3)[C@@H]2C1 (racemic)
133 to 135	CC(C)N1C(=O)c2cncnc2N(C(=O)CN2CCN(C)CC2)c2ccccc21
190 to 192	O=C(O)COc1ccc(C2=CC(=O)CC(c3ccc(F)cc3)C2)c(Cl)c1Cl (stereo not drawn)
94 to 95	CCOC(=O)/C=C/c1cn(Cc2ccc(OCc3ccccc3)cc2)nc1-c1ccccc1
167 to 170	CC(C)(C)C(NC(=O)c1ccc(Cl)cc1)NC(=NC#N)Nc1cccc(F)c1 (stereo not drawn)
127 to 128	Cc1nc(N2CCN(Cc3ccc(C(F)(F)F)cc3)C2=O)sc1C(=O)NCc1ccccc1
110 to 112	CCCC1c2c(ccc(C(C)=O)c2O)OC1CSc1ccc(C(=O)CCC(=O)O)cc1 (stereo not drawn)
170 to 172	CCc1oc2ccccc2c1C(=O)c1ccc(Cl)c(S(N)(=O)=O)c1
96 to 106	CC1CCOC(CBr)(c2ccc(Oc3ccccc3)cc2)O1 (stereo not drawn)
209 to 210	Nc1ccc(OC2CCN(c3ccncc3)CC2)cc1

The remaining lines, values behind:

SMILES	melting point [°C]
CN1CCCCCC1=NC(=O)Nc1cccc(Cl)c1	115 to 118
CC(=O)N1CCC(C(=O)c2ccc(Cl)c(Cl)c2)CC1	134 to 136
Cc1cc(-c2noc(C(F)(F)F)n2)cc(C)c1OCCCc1ccc(CO)nc1	92 to 94
COc1ccc2c(c1OC)CN(c1nc(N)c3cc(OC)c(OC)c(OC)c3n1)CC2	190
COc1cc(Cl)cc(C(=O)C(F)(F)F)c1N	124 to 126
CC(C)(F)c1cnn2c(-c3ccc(F)c(-c4c(F)cccc4C#N)c3)cnc2n1	187 to 188
Cn1c(C(F)(F)F)cc(=O)n(-c2ccc3snc(CN(C(=O)OC(C)(C)C)S(C)(=O)=O)c3c2)c1=O	109 to 111
CC(C)=NOc1nc(C(F)(F)F)cc(=O)n1-c1cc(Oc2ccccc2[N+](=O)[O-])c(Cl)cc1F	156 to 159
COc1ccc(-c2cc3c(Nc4cccc(Cl)c4)ncnc3[nH]2)cc1	294 to 295
CCCCCCCC(=O)Nc1cccc(-c2cc(=O)cc(C(=O)O)o2)c1	242 to 247
CC(C)C1(C)Cc2cc(OCC(=O)O)c(Cl)c(Cl)c2C1=O (stereo not drawn)	148
CCOC(=O)Cn1ccc2ccc3c(c21)CCN(C(=O)OC(C)(C)C)CC3	111 to 115
N#Cc1cccc(-n2c(=O)oc3ccc(-c4ccc(F)cc4F)cc3c2=O)c1	209 to 210
CCNC(=O)N1C(=O)C2(CCCCC2)NC12CCCCC2	185 to 188
Cn1nc(C(F)(F)F)c(CS(=O)(=O)C2=NOC(C)(C)C2)c1OC1CCCC1	113 to 114
COC(=O)c1c(-c2ccc(F)cc2)nc(N)nc1C(C)C	146 to 147
COCC(=O)N[C@H]1CC[C@H](CCN2CCC(c3cccc4c3CCO4)CC2)CC1	156
COc1ccc(Cl)c(Oc2c(Cl)ncnc2NS(=O)(=O)c2ccc(C(C)C)cn2)c1	174 to 175
CCNC(=O)C(I)=C(Br)I	154 to 155
CC(C)NC(=O)c1ccc(-c2ccc3oc(C4CCN(C(=O)OC(C)C)CC4)nc3c2)cc1F	147 to 150
N#Cc1ccc(-c2cccc(-c3nc4cc(C#N)ccc4[nH]3)c2)nc1	281 to 282
O=C1C[C@H](NC(=O)C(F)(F)F)C(=O)O1	116 to 118
Cc1nn(C)c(OCC(=O)C(C)(C)CCl)c1C(=O)c1ccc(Cl)cc1Cl	58 to 60
CS(=O)(=O)N1CCSc2cccc(Cl)c2C1	85 to 86
